Square brackets hold non-standard residues; d marks the D form. Peptide text beside a SMILES is read from it. Aib = CC(C)(N)C(=O)O A value given as a limit tells only on which side of the number the result lay.

Data set [1] deals with T1, extracellular domain of VEGFR-1 (Homo sapiens, UniProt P17948).
T1 construct: the extracellular domain of VEGFR-1; purchased R&D Systems
Briefly: Chemiluminescent assay: inhibition of biotinylated VEGF165 binding to isolated VEGFR-1. Conditions: peptide at 500 μM; chemiluminescence read-out. From the text:
A chemiluminescent assay to determine the inhibition of complex formation between VEGF-A (isoform VEGF165) and the extracellular domain of VEGFR-1 (Goncalves et al., [2007]; García-Aranda et al., [2013]) had been previously employed in our group (Zanella et al., [2015]). VEGF-C (from which analogue 1 was derived) is not selective for VEGFR-1 (Su et al., [2007]), but unfortunately the same assay protocol turned out to be ineffective with VEGFR-2, at least in our hands. The assay based on VEGFR-1 was therefore applied here as a very stringent test of the affinity of our peptides for VEGFRs, and to assess the different peptides comparatively. All peptides were able to inhibit complex formation (Table 3), although in the high micromolar range. […] Further studies were focused on analogues 5 and 6, considering also the higher stability of their secondary structure, which affects resistance to proteolytic degradation.
The chemiluminescent screening assay for the detection of VEGFR-1 ligands was accomplished according to the procedure described in the Supporting Information. […]
horseradish peroxidase diluted at 1:1000 in PBS containing 0.1% (v/v) Tween 20 and 0.3% (w/v) BSA were added per well. Af ter 1 h of incubation at r.t., the plate was washed f ive times with 150 μL of buffer A and 100 μL of SuperSignal W est Pico Chemiluminescent Substrate (Pierce, Rockford, IL, USA) were added. The remaining bt-VEGF165 was detected by chemiluminescence, which was quantif ied with a Synergy™ HT Multi -Detection Microplate Reader (BioTek Instruments, Inc.). The percentages of btVEGF165 displacement were calculated by the following formula: percentage of displacement = 100×[1−( S−NS) / (MS−NS)], where S is the signal measured, NS is the nonspecific binding signal and MS is the maximum binding signal observed with btVEGF165 without tested compounds. […]
loading: 0.5 mmol/g) were used.
Each coupling step consisted in:
1) activation of the Fmoc-protected amino acid;
2) addition of the activated amino acid to the resin at the synthesizer to start the coupling; 3) steps of capping, deprotection and washing.
To perform the automated SPPS, two solutions and two solvents were prepared: 25% Ac2O in DMF (v/v), 25% piperidine in DMF (v/v), methanol and DMF. W hile MeOH was used only as washing solvent, DMF was necessary either for washings and as solvent for the reactions of coupling, capping and deprotection. […]

Data set [2] deals with T1, extracellular domain of VEGFR-1. The conditions noted are these: chemiluminescent VEGFR-1 ligand screening assay; ref Zanella et al., 2015; read-out: IC50 of unlabeled VEGF165 (reference compound); cited from earlier work. The source says: The chemiluminescent screening assay for the detection of VEGFR-1 ligands was accomplished according to the procedure described in the Supporting Information.

Another data set concerns chymotrypsin. Description: Resistance to proteolytic degradation, chymotrypsin. Format: in vitro ADME. Conditions: Tris·HCl 50 mM pH 7.8, 37°C, RP-HPLC C18 read-out. The method, then: (§1) The proteolytic stability of peptides 1, 5, and 6 was assessed against three enzymes: pronase, trypsin and chymotrypsin (Sigma-Aldrich). Each peptide was dissolved in the appropriate buffer [i.e., (2-amino-2-hydroxymethyl-propane-1,3-diol (Tris)·HCl 20 mM, containing 20 mM CaCl2 pH 7.6 for pronase; Tris·HCl 50 mM, pH 7.8 for trypsin and chymotrypsin). Then, it was incubated with and without the enzyme solution (1.25 μg of enzyme in […] buffer) at 37°C for 12 h. The mixture was analyzed by RP-HPLC (column: Phenomenex Jupiter 5 μ C18 300 Å) every ten minutes for the first hour, then every half hour. Gradients: 5–25%B in 10 min for peptide 1; 15–35%B in 10 min for peptide 5; 15–25%B in 10 min for peptide 6. Eluants: A, H2O:CH3CN 9/1 + 0.05% trifluoroacetic acid (TFA); B: CH3CN:H2O 9/1 + 0.05% TFA.

For a further data set, the system named is pronase. Briefly: Resistance to proteolytic degradation, pronase. The format is in vitro ADME. The conditions noted are these: Tris·HCl 20 mM with 20 mM CaCl2 pH 7.6, 37°C, RP-HPLC C18 read-out. The procedure: as §1
Another data set deals with trypsin. Briefly: Resistance to proteolytic degradation, trypsin. The format is in vitro ADME. The conditions noted are these: Tris·HCl 50 mM pH 7.8, 37°C, RP-HPLC C18 read-out. The method, then: as §1

T1 sequence (P17948 27-758 limits assumed): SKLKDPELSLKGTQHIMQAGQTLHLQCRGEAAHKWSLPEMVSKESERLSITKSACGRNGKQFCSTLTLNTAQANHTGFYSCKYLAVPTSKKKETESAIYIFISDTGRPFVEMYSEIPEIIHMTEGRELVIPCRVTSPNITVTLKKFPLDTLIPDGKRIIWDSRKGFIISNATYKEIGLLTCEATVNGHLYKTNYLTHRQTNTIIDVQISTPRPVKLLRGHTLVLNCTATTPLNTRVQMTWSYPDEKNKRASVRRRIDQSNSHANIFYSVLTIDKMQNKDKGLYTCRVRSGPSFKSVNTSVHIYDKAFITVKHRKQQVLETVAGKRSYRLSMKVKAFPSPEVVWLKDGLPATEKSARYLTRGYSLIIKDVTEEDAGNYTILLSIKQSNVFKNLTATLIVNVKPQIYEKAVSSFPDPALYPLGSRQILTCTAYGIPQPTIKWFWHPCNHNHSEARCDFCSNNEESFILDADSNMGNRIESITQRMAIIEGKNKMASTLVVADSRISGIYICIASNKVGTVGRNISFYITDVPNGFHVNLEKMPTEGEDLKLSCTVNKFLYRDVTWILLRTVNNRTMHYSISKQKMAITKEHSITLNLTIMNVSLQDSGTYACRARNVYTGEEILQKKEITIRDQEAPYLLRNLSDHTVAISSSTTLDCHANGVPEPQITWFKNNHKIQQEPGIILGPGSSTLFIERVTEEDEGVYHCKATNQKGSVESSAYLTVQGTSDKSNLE

With Ac-WDNEWRKTW-NH2 [Peptide 2], the inhibition at 500 µM in data set [1] turned out to be 29 ± 7%.

In the case of “VEGF165: VEGF-A isoform VEGF165, unlabeled, employed as reference compound in the VEGFR-1 assay”, in data set [2], the IC50 is 0.146 nM. Take “Ac-IDNEWRKTQ-NH2 [Peptide 1, Ac-Ile-Asp-Asn-Glu-Trp-Arg -Lys-T hr -Gln-amide]”: the “time within which peptide was degraded by chymotrypsin” value with chymotrypsin is reported as no more than 15 min. The “time within which peptide was degraded by pronase” value with pronase is reported as no more than 15 min. For the same molecule, the inhibition at 500 µM in data set [1] amounted to 27 ± 1%. Moreover, in the data set with trypsin, the “time within which peptide was degraded by trypsin” value is reported as no more than 15 min. Regarding `CC[C@H](C)[C@H](NC(=O)C(C)(C)NC(C)=O)C(=O)N[C@@H](CC(=O)O)C(=O)N[C@@H](CC(N)=O)C(=O)NC(C)(C)C(=O)N[C@@H](Cc1c[nH]c2ccccc12)C(=O)N[C@@H](CCCNC(=N)N)C(=O)N[C@@H](CCCCN)C(=O)NC(C)(C)C(=O)N[C@@H](CCC(N)=O)C(N)=O` [Peptide 3, Ac-Aib-Ile-Asp-As n -Aib-Trp-Arg -Lys-Aib-Gln-amide] (Ac-[Aib]IDN[Aib]WRK[Aib]Q-NH2), in data set [1], the inhibition at 500 µM was found to be 86 ± 1%. In the case of `CC(=O)NC(C)(C)C(=O)N[C@@H](Cc1c[nH]c2ccccc12)C(=O)N[C@@H](CC(=O)O)C(=O)N[C@@H](CC(N)=O)C(=O)NC(C)(C)C(=O)N[C@@H](Cc1c[nH]c2ccccc12)C(=O)N[C@@H](CCCNC(=N)N)C(=O)N[C@@H](CCCCN)C(=O)NC(C)(C)C(=O)N[C@@H](Cc1c[nH]c2ccccc12)C(N)=O` [Peptide 4, Ac-Aib-Trp- Asp-Asn-Aib-Trp- Arg -Lys-Aib-Trp-amide] (Ac-[Aib]WDN[Aib]WRK[Aib]W-NH2), the inhibition at 500 µM in data set [1] worked out at 40 ± 10%.

In general, inhibition refers to the percentage by which the read-out fell short of the control. Usually IC50 stands for the concentration that gives 50% inhibition.

(Values after publication PMC6449863, “Rational Design of Antiangiogenic Helical Oligopeptides Targeting the Vascular Endothelial Growth Factor Receptors” (Frontiers in Chemistry, 2019).)
